Measured values as given in PubChem BioAssay AID624167 (Sanford-Burnham Center for Chemical Genomics, 2012).
The source made the active and inactive calls.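 The calls were made as follows: active = mean IC50 for reducing PEG3 promoter reporter signal at or below a set limit, with IC50 above the limit in both counter screens; inactive = the rest, including counter screen hits.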

How the values were obtained:
PEG-3 [1] = biological target: PEG-3 (UniProt Q6IN02); assay: Peg3 promoter luciferase inhibitors, potency, dose response, cell-based, HeLa, CREF/GAPDH counter-screen panel (AID 624167); settings: HeLa PEG-Prom luciferase reporter, overnight, CREF/GAPDH counter-screens, mean of runs
PEG-3 (UniProt Q6IN02), sequence (Q6IN02 whole entry, looked up): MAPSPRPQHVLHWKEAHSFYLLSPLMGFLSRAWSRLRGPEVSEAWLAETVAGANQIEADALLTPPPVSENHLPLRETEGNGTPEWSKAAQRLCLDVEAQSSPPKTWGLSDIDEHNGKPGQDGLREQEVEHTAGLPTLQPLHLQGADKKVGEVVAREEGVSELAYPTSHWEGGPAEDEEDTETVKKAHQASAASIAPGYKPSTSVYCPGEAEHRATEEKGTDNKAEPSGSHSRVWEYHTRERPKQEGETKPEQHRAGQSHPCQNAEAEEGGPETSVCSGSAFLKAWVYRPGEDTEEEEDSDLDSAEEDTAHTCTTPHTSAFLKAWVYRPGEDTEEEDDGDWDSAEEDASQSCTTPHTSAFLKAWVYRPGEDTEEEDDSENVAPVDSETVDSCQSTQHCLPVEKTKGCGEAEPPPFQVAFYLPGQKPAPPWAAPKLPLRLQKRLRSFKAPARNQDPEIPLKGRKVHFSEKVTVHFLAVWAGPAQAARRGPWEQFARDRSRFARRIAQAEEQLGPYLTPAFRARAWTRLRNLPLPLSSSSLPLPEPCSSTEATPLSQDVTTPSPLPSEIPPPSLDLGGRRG

PEG-3 [2] = assay: as above; settings: HeLa PEG-Prom luciferase reporter, overnight, CREF/GAPDH counter-screens
[3] = run 1, dose range 1, individual replicate IC50 per panel
[4] = run 2, dose range 1, individual replicate IC50 per panel

SMILES	IC50 (PEG-3 [1])	IC50 (PEG-3 [2]; [3]) [µM]	IC50 (PEG-3 [2]; [4]) [µM]
CC(C)n1cc(CN2CCC(C(=O)Nc3cccc(-c4cccc(Cl)c4)c3)CC2)cn1	13.4 µM	17.4	9.39
Cc1nc(-c2ccc(F)cc2)c(CC(=O)N(C)CC(=O)Nc2ccc(Cl)c(C(F)(F)F)c2)s1	inactive	26	33.8
O=C(Nc1ccccc1)c1nc[nH]c1C(=O)NCCCCNC(=O)c1[nH]cnc1C(=O)Nc1ccccc1	11.3 µM	17.7	4.92
Cc1ccc(C2(CCNCc3ccc(N(C)C)cc3)CCOC(C(C)C)C2)cc1 (configuration not stated)	inactive	25.9	21.3
COc1ccc(CCNC(=O)C(=O)NCC2CCCN2S(=O)(=O)c2ccccc2)cc1OC (configuration not stated)	inactive	29.8	39.3
COc1cccc(NC(=O)Nc2cccc(C(=O)O)c2)c1	inactive	15.1	30
Cc1cc(C)c2nc(N(CCCN(C)C)C(=O)c3ccc(S(=O)(=O)N4CCCCCC4)cc3)sc2c1	20 µM	24.3	15.6
CC1=C(CC[C@@H](C)CO)OC2CC3C4CCC5CC(O)CCC5(C)C4CC(=O)C3(C)C12 (some centres not stated)	inactive	24.7	64.2
CNC(=O)c1ccsc1NC(=O)c1ccc(S(=O)(=O)N2CCc3ccccc32)cc1	16.5 µM	19.2	13.9
CCN(CC)CCN1CCN(c2cncc(-c3ccc4ccccc4c3)n2)CC1	inactive	34.4	11.9
Oc1ccc(C23CCCC2C2(CCCC2)c2ccc(O)cc2O3)c(O)c1 (configuration not stated)	inactive	27.2	54.4
Cc1nc2c(OCc3ccc(OC(F)F)cc3)cccn2c1N(C)C(=O)CCC1CCCC1	inactive	28.9	23.5
CC(=O)Nc1ccc(S(=O)(=O)N(Cc2ccco2)Cc2cc3ccccc3[nH]c2=O)cc1	inactive	18.5	22.4
COc1cc2ccccc2cc1C(=O)N(CCN(C)C)c1nc2c(OC)ccc(OC)c2s1	inactive	30.7	21.2
CC(=O)Nc1cccc(-c2ccnc3c2CC(C)(C(=O)Nc2cccc(C(F)(F)F)c2)O3)c1 (configuration not stated)	inactive	5.21	> 100
Cn1nnnc1Sc1ncnc2scc(-c3ccsc3)c12	11.5 µM	14.7	8.36
COc1ccc(/C=C/C(=O)c2ccc3c4c(cccc24)CC3)cc1OC	inactive	31.6	42
CC(=O)c1ccc(Nc2nc(C(N)Cc3ccc(Cl)cc3)cs2)cc1 (configuration not stated)	inactive	25.7	15.1
CCN(CC)c1ccc2nc3ccc(N)cc3[n+](-c3ccccc3)c2c1	11.1 µM	9.95	12.2
Cc1cc(C(=O)CN2C(=O)c3ccccc3S2(=O)=O)c(C)n1C(C)C	12.1 µM	6.41	17.8
CC1=CC(C)[C@H](/C=N/n2c(=O)[nH]c3c([nH]c4ccc(Br)cc43)c2=O)C(C)C1 (some centres not stated)	inactive	> 100	5.42
CN(C)CC(O)COc1ccc(C(C)(C)c2ccc(OCC(O)CN(C)C)cc2)cc1 (configuration not stated)	inactive	26.8	> 100

SMILES	IC50 (PEG-3 [1])	IC50 (PEG-3 [2]; [3]) [µM]	IC50 (PEG-3 [2]; [4]) [µM]
CC(=O)OC(C)(C)/C=C/C(=O)C(C)(O)C1[C@H](O)C[C@@]2(C)C3CC=C4C(CC[C@@H](O)C4(C)C)[C@]3(CO)C(=O)C[C@]12C (some centres not stated)	inactive	47	< 0.2
CCCOC(=O)c1cccc(Nc2nc(-c3cccnc3)nc3ccccc23)c1	12.3 µM	12.6	11.9
COc1ccc(CC(N)c2csc(NC(=O)Nc3ccccc3C(C)(C)C)n2)cc1 (configuration not stated)	inactive	19.1	31
COc1cc(-c2cc(C(=O)N(C)Cc3ccccc3)c3ccccc3n2)cc(OC)c1OC	inactive	69.3	72.2
Cc1cc(C)c2ccc(N)nc2c1O	15.3 µM	7.69	22.9
CCN(CCN(C)C)C(=O)C1CCN(S(=O)(=O)c2c(C)noc2/C=C/c2ccccc2F)CC1	inactive	28.2	21.4
O=C(Nc1ccc2oc(-c3ccncc3)nc2c1)c1ccc([N+](=O)[O-])o1	11.2 µM	15.9	6.56
CCN1CCN(c2ncc(C(=O)Nc3cc(Cl)ccc3OC)c3ccccc23)CC1	inactive	26.6	51.4
COc1ccc(CCNC(=O)c2cc3c(=O)n4ccccc4nc3n(C3CCCCC3)c2=N)cc1	> 100 µM (inactive)	> 100	> 100
COc1ccc2c(c1)C=C([C@@H]1C[C@H]3CN(c4ccccc4)C(=O)[C@]34CCCN14)CO2	> 100 µM (inactive)	> 100	> 100
CC(C)CC1C(=O)N(Cc2cn(CCC3OCCO3)nn2)CCS(=O)(=O)N1Cc1ccc(-c2ccc(F)cc2)cc1 (configuration not stated)	inactive	31.3	33.2
O=C(CCN1C(=O)/C(=C/c2cccs2)SC1=S)N1CCCCC1	inactive	24.6	25.5
Cc1ccc(F)cc1-c1cc2nc(NCCCN(C)C)n(C)c(=O)c2s1	inactive	30.9	59.5
O/N=C(\c1ccc(Cl)cc1Cl)c1ncc(C(F)(F)F)cc1Cl	inactive	32.4	29.9
CSc1ccc(CN(C)C(=O)C(Cc2ccccc2)NC(=O)c2ccccc2)cc1 (configuration not stated)	inactive	21.3	24.4
O=C(CCCN1C(=O)/C(=C/c2cccc(Br)c2)SC1=S)Nc1cccnc1	13.6 µM	15.1	12.1
CN1CCN(CCNC(=O)c2ccc3nc(-c4ccc(F)cc4)c(-c4ccc(F)cc4)nc3c2)CC1	15.4 µM	19.4	11.3
Cc1ccc(-c2cc(C(=O)Nc3nccs3)c3ccccc3n2)c(C)c1	inactive	32.1	> 100
O=C(c1ccccc1)N(C(=O)c1ccccc1)c1ncnc2c1C(c1ccccc1)c1c(ccc3ccccc13)O2 (configuration not stated)	inactive	4.36	> 100
CCN(CC)CCNc1cccc2sc3ccccc3c(=O)c12	inactive	18.3	25.6
COc1cc(C(=O)/C=C/c2cccnc2)c([N+](=O)[O-])cc1OC	18.3 µM	19.3	17.3
Cc1[nH]c2ccc(OC(F)(F)F)cc2c1CCNCc1cccc([N+](=O)[O-])c1	inactive	25.1	> 100

SMILES	IC50 (PEG-3 [1])	IC50 (PEG-3 [2]; [3]) [µM]	IC50 (PEG-3 [2]; [4]) [µM]
CC(C)(C)c1ccc(/C=N/Nc2ccc(C(=O)O)cc2)cc1	inactive	36.7	28
CCN1C(=O)C(=Cc2cccc(OC)c2Oc2ccc([N+](=O)[O-])cc2[N+](=O)[O-])SC1=S	> 100 µM (inactive)	> 100	> 100
COc1cccc2c1C(=N)c1c(O)c3c(c(O)c1C2=O)CC(O)(C(C)=O)CC3OC1CC(N)C(O)C(C)O1 (configuration not stated)	11.6 µM	15.7	7.56
COC(=O)c1ccccc1-c1ccc(/C=N/Nc2nc(N3CCCC3)nc(N3CCCC3)n2)o1	inactive	26.8	34.7
O=C(Cc1csc(Nc2nc(=S)[nH]c3ccccc23)n1)NCc1ccccc1Cl	> 100 µM (inactive)	> 100	> 100
O=c1c2ccccc2nc(CSc2ncnc3nc[nH]c23)n1-c1ccc(Cl)c(Cl)c1	inactive	8.77	> 100
O=Nc1c(O)ccc2cc(S(=O)(=O)O)ccc12	11.7 µM	9.17	14.2
NCCc1c(-c2ccccc2)n(-c2ccccc2)c2ccccc12	12.9 µM	17.4	8.4
CCOC(=O)c1c(C)[nH]c(C(=O)OCC(=O)Nc2sccc2C(N)=O)c1C	inactive	31.1	68.7
CN(Cc1ccccc1F)C(=O)C(Cc1ccccc1)NC(=O)c1ccccc1 (configuration not stated)	inactive	32.3	95.6
CCN(CC)CCOc1ccc(/C(=C(/Cl)c2ccccc2)c2ccccc2)cc1	17 µM	22.4	11.6
CCCCCc1ccc(OCCCC[n+]2cccc(C)c2)c(CCCCC)c1	13.6 µM	16.4	10.7
CSc1ccc2c(c1)C(N1CCN(C)CC1)Cc1ccccc1S2 (configuration not stated)	11.6 µM	16.9	6.17
CN(C)CCNC(=O)/C(=C/c1ccc(-c2ccc(Cl)cc2)o1)NC(=O)c1ccccc1	13.9 µM	18.1	9.62
CC1(C)CC(NC(=O)c2cccc(S(=O)(=O)N(Cc3ccccc3)c3ccccc3)c2)CC(C)(C)N1	18.8 µM	18.6	18.9
COC(=O)c1cc(=O)n(Cc2ccco2)c(=Nc2ccc(F)cc2)s1	17.8 µM	17.6	17.9
CCOC(=O)/C(=C\c1ccccc1)C(=O)CCN1CCOCC1	13.3 µM	16.6	9.98
CCC(C)Sc1ccc(-c2nc3ccccn3c2NCc2ccccc2)cc1OC (configuration not stated)	inactive	38.3	20.2
CC(=O)NC(c1ccccc1)c1cc(Cl)c2cccnc2c1O (configuration not stated)	9.5 µM	6.33	12.7
CCN(c1ccccc1)S(=O)(=O)c1ccc(C(=O)N(CCCN(C)C)c2nc3cc4c(cc3s2)OCO4)cc1	inactive	23.6	19.7
